Columns and labels:
pigweed = assay: Test C pre-/postemergence herbicide test; assay type: in vivo, Amaranthus retroflexus
How it was run: (§1)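 Visual rating, 0 (no effect) to 100 (complete control), versus untreated controls after 13 to 15 days in the greenhouse. Pre: seeds in loam/sand, sprayed at planting. Post: 1- to 4-leaf plants (2 to 18 cm) in peat-based mix. Compounds in non-phytotoxic solvent plus surfactant.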

waterhemp = assay: Test C pre-/postemergence herbicide test; assay type: in vivo, Amaranthus rudis
How it was run: as §1

wheat (winter wheat) = assay: Test C pre-/postemergence herbicide test; assay type: in vivo, Triticum aestivum
How it was run: as §1

ducksalad = assay: Test B flooded paddy test; assay type: in vivo, Heteranthera limosa; details: 500 g ai/ha, Flood; scale of 0 to 100 where 0 is no effect and 100 is complete control
How it was run: (§2)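 In-water application to pots flooded 3 cm deep, plants at 2-leaf stage. Held in greenhouse 13–15 days at constant flood depth. Scored 0–100 by eye against controls.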

galium = assay: Test C pre-/postemergence herbicide test; assay type: in vivo, Galium aparine; details: Preemergence
How it was run: as §1

sedge, umbrella = assay: Test B flooded paddy test; assay type: in vivo, Cyperus difformis; details: 500 g ai/ha, Flood; scale of 0 to 100 where 0 is no effect and 100 is complete control
How it was run: as §2

ragweed = assay: Test C pre-/postemergence herbicide test; assay type: in vivo, Ambrosia elatior
How it was run: as §1

corn = assay: Test C pre-/postemergence herbicide test; assay type: in vivo, Zea mays
How it was run: as §1

barnyardgrass [1] = assay: Test C pre-/postemergence herbicide test; assay type: in vivo, Echinochloa crus-galli
How it was run: as §1

lambsquarters = assay: Test C pre-/postemergence herbicide test; assay type: in vivo, Chenopodium album
How it was run: as §1

soybean = assay: Test C pre-/postemergence herbicide test; assay type: in vivo, Glycine max
How it was run: as §1

morningglory = assay: Test C pre-/postemergence herbicide test; assay type: in vivo, Ipomoea coccinea
How it was run: as §1

ryegrass, Italian = assay: Test C pre-/postemergence herbicide test; assay type: in vivo, Lolium multiflorum
How it was run: as §1

barnyardgrass [2] = assay: Test B flooded paddy test; assay type: in vivo, Echinochloa crus-galli; details: 500 g ai/ha, Flood; scale of 0 to 100 where 0 is no effect and 100 is complete control
How it was run: as §2

oat, wild = assay: Test C pre-/postemergence herbicide test; assay type: in vivo, Avena fatua; details: Postemergence
How it was run: as §1

[3] = Postemergence, 31 g ai/ha, scale 0 to 100 (0 no effect, 100 complete control)
[4] = Postemergence, 62 g ai/ha, scale 0 (no effect) to 100 (complete control)
[5] = Postemergence, 125 g ai/ha, scale 0 to 100 (0 no effect, 100 complete control)
[6] = Postemergence, 250 g ai/ha, scale 0 to 100 (0 no effect, 100 complete control)
[7] = Preemergence, 31 g ai/ha, scale 0 to 100, 0 is no effect and 100 is complete control
[8] = Preemergence, 62 g ai/ha, scale 0 to 100 (0 no effect, 100 complete control)
[9] = Preemergence, 125 g ai/ha, scale 0 to 100

O=C1NCC(c2cccc(C(F)(F)F)c2)C1C(=O)Nc1ccc(F)c(F)c1F (centres unmarked) [Compound 315]
Plant response rating, Pigweed (pigweed; [3]): 25 | Plant response rating, Pigweed (pigweed; [4]): 65 | Plant response rating, Pigweed (pigweed; [5]): 65 | Plant response rating, Pigweed (pigweed; [6]): 80 | Pigweed plant response rating (pigweed; [7]): 45 | Pigweed plant response rating (pigweed; [8]): 60 | Plant response rating, Pigweed (pigweed; [9]): 75 | Plant response rating (scale of 0 to 100), Pigweed (pigweed; Preemergence, 250 g ai/ha): 85 | Plant response rating, Waterhemp (waterhemp; [3]): 50 | Plant response rating, Waterhemp (waterhemp; [4]): 60 | Plant response rating, Waterhemp (waterhemp; [5]): 60 | Plant response rating, Waterhemp (waterhemp; [6]): 65 | Waterhemp plant response rating (waterhemp; [8]): 75 | Plant response rating, Waterhemp (waterhemp; [9]): 85 | Plant response rating (scale of 0 to 100), Waterhemp (waterhemp; Preemergence, 250 g ai/ha): 85 | Plant response rating, Wheat (wheat (winter wheat); [3]): 0 | Plant response rating, Wheat (wheat (winter wheat); [4]): 0 | Plant response rating, Wheat (wheat (winter wheat); [5]): 0 | Plant response rating, Wheat (wheat (winter wheat); [6]): 5 | Wheat plant response rating (wheat (winter wheat); [8]): 50 | Plant response rating, Wheat (wheat (winter wheat); [9]): 90 | Plant response rating (scale of 0 to 100), Wheat (wheat (winter wheat); Preemergence, 250 g ai/ha): 90 | Plant response rating, Ducksalad (ducksalad): 100 | Galium plant response rating (galium; 31 g ai/ha, scale 0 to 100, 0 is no effect and 100 is complete control): 90 | Galium plant response rating (galium; 62 g ai/ha, scale 0 to 100 (0 no effect, 100 complete control)): 80 | Plant response rating, Galium (galium; 125 g ai/ha, scale 0 to 100): 80 | Plant response rating (scale of 0 to 100), Galium (galium; 250 g ai/ha): 90 | Plant response rating, Sedge, Umbrella (sedge, umbrella): 0 | Plant response rating, Ragweed (ragweed; [3]): 0 | Plant response rating, Ragweed (ragweed; [4]): 20 | Plant response rating, Ragweed (ragweed; [5]): 65 | Plant response rating, Ragweed (ragweed; [6]): 70 | Ragweed plant response rating (ragweed; [8]): 20 | Plant response rating, Ragweed (ragweed; [9]): 50 | Plant response rating (scale of 0 to 100), Ragweed (ragweed; Preemergence, 250 g ai/ha): 80 | Plant response rating, Corn (corn; [3]): 0 | Plant response rating, Corn (corn; [4]): 0 | Plant response rating, Corn (corn; [5]): 10 | Plant response rating, Corn (corn; [6]): 60 | Corn plant response rating (corn; [7]): 50 | Corn plant response rating (corn; [8]): 80 | Plant response rating, Corn (corn; [9]): 80 | Plant response rating (scale of 0 to 100), Corn (corn; Preemergence, 250 g ai/ha): 85 | Plant response rating, Barnyardgrass (barnyardgrass [1]; [3]): 25 | Plant response rating, Barnyardgrass (barnyardgrass [1]; [4]): 65 | Plant response rating, Barnyardgrass (barnyardgrass [1]; [5]): 70 | Plant response rating, Barnyardgrass (barnyardgrass [1]; [6]): 85 | Barnyardgrass plant response rating (barnyardgrass [1]; [7]): 90 | Barnyardgrass plant response rating (barnyardgrass [1]; [8]): 90 | Plant response rating, Barnyardgrass (barnyardgrass [1]; Preemergence, 125 g ai/ha, scale 0 to 100 (0 no effect, 100 complete control)): 90 | Plant response rating (scale of 0 to 100; 0 is no effect, 100 is complete control), Barnyardgrass (barnyardgrass [1]; Preemergence, 250 g ai/ha): 95 | Plant response rating, Lambsquarters (lambsquarters; [3]): 60 | Plant response rating, Lambsquarters (lambsquarters; [4]): 60 | Plant response rating, Lambsquarters (lambsquarters; [5]): 65 | Plant response rating, Lambsquarters (lambsquarters; [6]): 80 | Lambsquarters plant response rating (lambsquarters; [7]): 40 | Lambsquarters plant response rating (lambsquarters; [8]): 40 | Plant response rating, Lambsquarters (lambsquarters; [9]): 70 | Plant response rating (scale of 0 to 100), Lambsquarters (lambsquarters; Preemergence, 250 g ai/ha): 80 | Plant response rating, Soybean (soybean; [3]): 0 | Plant response rating, Soybean (soybean; [4]): 0 | Plant response rating, Soybean (soybean; [5]): 0 | Plant response rating, Soybean (soybean; [6]): 15 | Soybean plant response rating (soybean; [8]): 0 | Plant response rating, Soybean (soybean; [9]): 0 | Plant response rating (scale of 0 to 100), Soybean (soybean; Preemergence, 250 g ai/ha): 0 | Plant response rating, Morningglory (morningglory; [3]): 25 | Plant response rating, Morningglory (morningglory; [4]): 65 | Plant response rating, Morningglory (morningglory; [5]): 35 | Plant response rating, Morningglory (morningglory; [6]): 10 | Morningglory plant response rating (morningglory; [7]): 20 | Morningglory plant response rating (morningglory; [8]): 25 | Plant response rating, Morningglory (morningglory; [9]): 35 | Plant response rating (scale of 0 to 100), Morningglory (morningglory; Preemergence, 250 g ai/ha): 45 | Plant response rating, Ryegrass, Italian (ryegrass, Italian; [3]): 0 | Plant response rating, Ryegrass, Italian (ryegrass, Italian; [4]): 5 | Plant response rating, Ryegrass, Italian (ryegrass, Italian; [5]): 15 | Plant response rating, Ryegrass, Italian (ryegrass, Italian; [6]): 45 | Ryegrass, Italian plant response rating (ryegrass, Italian; [8]): 50 | Plant response rating, Ryegrass, Italian (ryegrass, Italian; [9]): 50 | Plant response rating (scale of 0 to 100), Ryegrass, Italian (ryegrass, Italian; Preemergence, 250 g ai/ha): 50 | Plant response rating, Barnyardgrass (barnyardgrass [2]): 70 | Plant response rating, Oat, Wild (oat, wild; 31 g ai/ha, scale 0 to 100 (0 no effect, 100 complete control)): 0 | Plant response rating, Oat, Wild (oat, wild; 62 g ai/ha, scale 0 (no effect) to 100 (complete control)): 0 | Plant response rating, Oat, Wild (oat, wild; 125 g ai/ha, scale 0 to 100 (0 no effect, 100 complete control)): 0 | Plant response rating, Oat, Wild (oat, wild; 250 g ai/ha, scale 0 to 100 (0 no effect, 100 complete control)): 0
